These results are taken from patent publication US6548667B2, “Sulfonamide derivative as a matrix metalloproteinase inhibitor” (Samsung Electronics Co. Ltd., priority 2000, dated 2003).

Common to all, as to type: biochemical
One assay addresses T1, gelatinase B (MMP-9) (Homo sapiens, UniProt P14780).
T1 construct: purchased Boehringer Manneheim 1758896; host or cells: human blood (natural source)
Description: In vitro inhibition on gelatinase B (MMP-9), fluorescent synthetic peptide substrate. Conditions: Table 1. The procedure:
(§1) The present test was accomplished by measuring the fluorescence intensity of a fluorescent material (7-methoxycoumarin-4-acetyl-Pro—Leu—Gly) produced from the cleavage of a fluorescent synthetic peptide substrate ((7-methoxycoumarin-4-acetyl-Pro—Leu—Gly—Leu-β-(2,4-dinitrophenylamino) Ala—Ala—Arg—NH2 (Sigma Chem. Co. U.S.A.)) by gelatinase A (Boehringer Manneheim cat# 1782916, from human fibrosarcoma cells).
(§2) The inhibition rate (%) was calculated from the following equation: [formula]
In vitro Inhibition on Gelatinase B (MMP-9)
In vitro inhibition rate on gelatinase B (MMP-9) was measured in a similar manner as in Example 70, except for employing gelatinase B (Boehringer Manneheim cat# 1758896, from human blood) and the concentration of gelatinase B (final concentration in well: 2.715 nM) and the concentration of the substrate, fluorescent synthetic peptide (final concentration in well: 4.575 uM).

The target of another assay is T2, collagenase (MMP-1) (Homo sapiens, UniProt P03956).
T2 construct: purchased AngioLab; Co., Ltd
T2 sequence (P03956 100-469): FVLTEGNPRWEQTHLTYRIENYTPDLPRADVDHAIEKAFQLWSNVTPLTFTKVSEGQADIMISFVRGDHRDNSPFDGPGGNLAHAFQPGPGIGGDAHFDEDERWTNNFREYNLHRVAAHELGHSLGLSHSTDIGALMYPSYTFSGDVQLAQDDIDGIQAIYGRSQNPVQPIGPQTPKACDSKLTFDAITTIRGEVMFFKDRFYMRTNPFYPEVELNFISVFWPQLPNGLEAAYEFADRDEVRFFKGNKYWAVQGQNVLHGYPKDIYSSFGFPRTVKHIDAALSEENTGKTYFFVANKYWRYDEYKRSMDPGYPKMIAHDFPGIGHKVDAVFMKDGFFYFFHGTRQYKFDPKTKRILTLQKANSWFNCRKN
Description: In vitro inhibition on collagenase (MMP-1), fluorescent synthetic peptide substrate. Conditions: Table 1; read-out: IC50 (nM) MMP-1. The procedure: [Worded in the source for another target; used here, by the source, with some conditions changed.] as §1, §2
In vitro Inhibition on Collagenase (MMP-1)

The target in the next assay is T3, gelatinase A (MMP-2) (Homo sapiens, UniProt P08253).
T3 construct: purchased Boehringer Manneheim 1782916; host or cells: human fibrosarcoma cells (natural source)
T3 sequence (P08253 110-660): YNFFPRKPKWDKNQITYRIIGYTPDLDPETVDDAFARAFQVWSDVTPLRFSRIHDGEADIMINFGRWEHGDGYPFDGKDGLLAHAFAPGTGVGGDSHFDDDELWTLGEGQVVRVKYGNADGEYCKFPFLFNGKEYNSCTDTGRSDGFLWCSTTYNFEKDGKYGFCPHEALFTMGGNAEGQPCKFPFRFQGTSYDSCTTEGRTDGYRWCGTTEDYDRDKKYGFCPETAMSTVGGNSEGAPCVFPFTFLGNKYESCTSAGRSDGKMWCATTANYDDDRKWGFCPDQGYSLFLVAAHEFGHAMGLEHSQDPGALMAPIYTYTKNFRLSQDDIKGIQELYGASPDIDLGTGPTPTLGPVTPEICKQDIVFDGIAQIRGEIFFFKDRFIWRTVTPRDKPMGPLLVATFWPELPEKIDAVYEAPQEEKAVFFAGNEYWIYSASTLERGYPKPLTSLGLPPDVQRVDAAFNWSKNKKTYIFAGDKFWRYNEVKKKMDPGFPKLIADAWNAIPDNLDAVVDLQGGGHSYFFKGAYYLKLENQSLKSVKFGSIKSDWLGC
Description: In vitro inhibition on gelatinase A (MMP-2), fluorescent synthetic peptide substrate. Conditions: Table 1. Here is the method: In vitro Inhibition on Gelatinase A (MMP-2)
as §1, §2
A represents fluorescence intensity before the reaction with an inhibitor;
B represents fluorescence intensity after the reaction with an inhibitor;
C represents fluorescence intensity before the reaction without an inhibitor; and,
D represents fluorescence intensity after the reaction without an inhibitor.

T1 sequence (P14780 107-707 limits assumed): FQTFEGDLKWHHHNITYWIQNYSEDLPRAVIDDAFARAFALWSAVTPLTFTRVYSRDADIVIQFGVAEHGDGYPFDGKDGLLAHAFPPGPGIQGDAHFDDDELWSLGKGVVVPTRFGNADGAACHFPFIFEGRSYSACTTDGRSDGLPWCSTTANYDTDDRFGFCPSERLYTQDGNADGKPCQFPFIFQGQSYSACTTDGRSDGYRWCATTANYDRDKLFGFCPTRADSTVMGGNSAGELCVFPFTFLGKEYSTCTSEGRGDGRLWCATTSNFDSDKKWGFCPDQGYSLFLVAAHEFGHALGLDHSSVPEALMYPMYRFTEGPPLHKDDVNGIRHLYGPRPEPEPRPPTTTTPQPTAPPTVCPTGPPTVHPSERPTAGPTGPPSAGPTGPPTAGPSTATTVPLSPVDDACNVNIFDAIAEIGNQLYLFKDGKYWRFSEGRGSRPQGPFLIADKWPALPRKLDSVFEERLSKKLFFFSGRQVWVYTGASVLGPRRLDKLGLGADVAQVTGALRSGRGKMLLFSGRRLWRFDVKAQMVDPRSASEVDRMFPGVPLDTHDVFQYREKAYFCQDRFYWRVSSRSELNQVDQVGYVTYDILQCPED

For “(3S)-N-hydroxy-4-[2-(n-butylthiobenzthiazol-6-sulfonyl)]-2,2-dimethyl-tetrahydro-2H-1,4-thiazine-3-carboxylamide [Table 6 Number 2]”, the IC50 turned out to be 496 nM against gelatinase B (MMP-9), 12500 nM on collagenase (MMP-1) and 5 nM at gelatinase A (MMP-2).

Consider “(2R)-2-[(2-n-pentylthiobenzthiazol-6-sulfonyl)benzylamino] propionic acid [Table 1 Number 5]”, for which the IC50 came to 6280 nM against gelatinase B (MMP-9) and 1200 nM on gelatinase A (MMP-2).

“(3S)-4-[2-(n-butylthiobenzthiazol-6-sulfonyl)]-2,2-dimethyl-tetrahydro-2H-1,4-thiazine-3-carboxylic Acid [Table 6 Number 1]”: the IC50 is 0.5 nM at gelatinase B (MMP-9), 2610 nM at collagenase (MMP-1) and 0.2 nM on gelatinase A (MMP-2).

Take `Cc1ccc(Sc2nc3ccc(S(=O)(=O)N[C@@H](C(=O)NO)C(C)C)cc3s2)cc1` [Number 80]: the IC50 came to 2 nM against gelatinase B (MMP-9) and 0.74 nM at gelatinase A (MMP-2).

Regarding “(2R)-3-methyl-2-[(2-propylthiobenzoxazol-6-sulfonyl)amino]butanoic acid [Example 19]”, the half-inhibitory concentration (IC50) stood at 3 nM at gelatinase B (MMP-9) and 0.6 nM at gelatinase A (MMP-2).

For `CCCCCCCCSc1nc2ccc(S(=O)(=O)N(Cc3ccccc3)[C@@H](C(=O)O)C(C)C)cc2s1` [Number 57], the values for the IC50 against gelatinase B (MMP-9) and at gelatinase A (MMP-2) were 5120 nM and 780 nM, respectively.

`CCCCCCCCCCCCSc1nc2ccc(S(=O)(=O)N(Cc3ccccc3)[C@@H](C(=O)O)C(C)C)cc2s1` [Number 61]: the IC50 was found to be 59600 nM against gelatinase B (MMP-9) and 23400 nM against gelatinase A (MMP-2).

On to “(2R)-3-methyl-2-[(ethylthiobenzthiazol-6-sulfonyl)amino]butanoic acid [Table 1 Number 31]”, for which the figures for the IC50 against gelatinase B (MMP-9), on collagenase (MMP-1) and against gelatinase A (MMP-2) were 0.6 nM, 3010 nM and 0.3 nM, respectively.

Regarding “(2R)-N-hydroxy-3-methyl-2-[(2-methylthiobenzthiazol-6-sulfonyl)amino]butyric amide [Table 1 Number 30]”, the figures for the IC50 against gelatinase B (MMP-9) and on gelatinase A (MMP-2) were 22 nM and 9.1 nM, respectively.

As to “(2R)-N-hydroxy-3-methyl-2-[(2-propylthiobenzoxazol-6-sulfonyl)amino]butyric amide [Example 20]”, the figures for the IC50 against gelatinase B (MMP-9) and at gelatinase A (MMP-2) were 610 nM and 47 nM, respectively.

In the case of “(2R)-N-hydroxy-2-[(2-heptylthiobenzthiazol-6-sulfonyl)amino]-3-(4-allyloxy) Phenylpropionic Amide [Table 5 Number 10]”, the IC50 against gelatinase B (MMP-9) worked out at 0.7 nM; against gelatinase A (MMP-2) it was 8 nM.

On to `CCCCCCCCSc1nc2ccc(S(=O)(=O)N[C@@H](C(=O)O)C(C)C)cc2s1` [Number 55], for which the IC50 is 764 nM at gelatinase B (MMP-9) and 9 nM at gelatinase A (MMP-2).

As to “(2R)-2-[(2-heptylthiobenzthiazol-6-sulfonyl)amino]-3-(4-allyloxy)phenylpropionic acid [Table 5 Number 9]”, the IC50 against gelatinase B (MMP-9) was 0.24 nM; at collagenase (MMP-1) it was 4670 nM; against gelatinase A (MMP-2), 0.046 nM.

For the compound `CC(C)[C@@H](NS(=O)(=O)c1ccc2nc(Sc3ccc(Br)cc3)sc2c1)C(=O)O` [Number 81], the IC50 against gelatinase B (MMP-9) came out at 930 nM; at gelatinase A (MMP-2), 320 nM.

As to `CCCCc1ccc(Sc2nc3ccc(S(=O)(=O)N[C@@H](C(=O)O)C(C)C)cc3s2)cc1` [Number 87], the IC50 on gelatinase B (MMP-9) stood at 660 nM; on gelatinase A (MMP-2), 120 nM.

As for “(3S)-4-(2-cyclohexylmethylthiobenzthiazol-6-sulfonyl)-2,2-dimethyl-tetrahydro-2H-1,4-thiazine-3-carboxylic Acid [Table 6 Number 5]”, the IC50 against gelatinase B (MMP-9) came out at 189 nM; against gelatinase A (MMP-2) it was 16 nM.

For `CC(C)[C@@H](NS(=O)(=O)c1ccc2nc(SCc3ccccc3)sc2c1)C(=O)NO` [Number 70], the half-maximal inhibitory concentration (IC50) against gelatinase B (MMP-9) and against gelatinase A (MMP-2) was 0.7 nM in each case.

Consider `CC(C)[C@@H](NS(=O)(=O)c1ccc2nc(Sc3ccccc3)sc2c1)C(=O)NO` [Number 78], for which the IC50 on gelatinase B (MMP-9) stood at 2.3 nM; against gelatinase A (MMP-2), 0.6 nM.

Consider `CCCCCCCCCCCCSc1nc2ccc(S(=O)(=O)N[C@@H](C(=O)O)C(C)C)cc2s1` [Number 59], for which the values for the IC50 against gelatinase B (MMP-9) and against gelatinase A (MMP-2) were 4210 nM and 170 nM, respectively.

For the compound `CC(C)[C@@H](NS(=O)(=O)c1ccc2nc(Sc3ccc(F)cc3)sc2c1)C(=O)O` [Number 83], the IC50 came out at 451 nM on gelatinase B (MMP-9) and 1430 nM against gelatinase A (MMP-2).

In the case of `CCCCSc1nc2ccc(S(=O)(=O)N(Cc3ccccc3)[C@@H](C(=O)O)C(C)C)cc2s1` [Number 41], the IC50 at gelatinase B (MMP-9) was determined as 700 nM; against gelatinase A (MMP-2), 270 nM.

Consider `CCCCCCCCSc1nc2ccc(S(=O)(=O)N(Cc3ccccc3)[C@@H](C(=O)NO)C(C)C)cc2s1` [Number 58], for which the results for the IC50 at gelatinase B (MMP-9) and against gelatinase A (MMP-2) were 77 nM and 28 nM, respectively.

On to “(±)-N-hydroxy-1,2,3,4-tetrahydro-2-[2-(n-pentylthiobenzthiazol-6-sulfonyl)]-3-methyl-3-isoquinolinecarboxylamide [Table 4 Number 4]”, for which the IC50 against gelatinase B (MMP-9) was 1770 nM; at gelatinase A (MMP-2) it was 385 nM.

As for `CC(C)[C@@H](NS(=O)(=O)c1ccc2nc(SCCCc3ccccc3)sc2c1)C(=O)O` [Number 75], the IC50 against gelatinase B (MMP-9) came out at 3190 nM; on gelatinase A (MMP-2), 1120 nM.

Take `CCCCCCCCCCCCSc1nc2ccc(S(=O)(=O)N[C@@H](C(=O)NO)C(C)C)cc2s1` [Number 60]: the IC50 is 77 nM at gelatinase B (MMP-9) and 17 nM on gelatinase A (MMP-2).

“(±)-1,2,3,4-tetrahydro-N-[2-(n-pentylthiobenzthiazol-6-sulfonyl)]-3-methyl-3-isoquinolinecarboxylic Acid [Table 4 Number 3]”: the IC50 is 3 nM against gelatinase B (MMP-9) and 2.7 nM against gelatinase A (MMP-2).

Regarding `CC(C)[C@@H](NS(=O)(=O)c1ccc2nc(SCc3ccc(Cl)cc3)sc2c1)C(=O)O` [Number 71], the results for the IC50 against gelatinase B (MMP-9) and against gelatinase A (MMP-2) were 79 nM and 40 nM, respectively.

With “(2R)-2-[(2-n-pentylthiobenzthiazol-6-sulfonyl)amino]propionic acid [Table 1 Number 1]”, the figures for the IC50 at gelatinase B (MMP-9) and against gelatinase A (MMP-2) were 4800 nM and 640 nM, respectively.

With “(2R)-3-methyl-2-[(2-methylthiobenzthiazol-6-sulfonyl)amino]butanoic acid [Table 1 Number 29]”, the IC50 on gelatinase B (MMP-9) was 9 nM; against gelatinase A (MMP-2) it was 1.2 nM.

With “(2R)-2-[(2-(4-methoxyphenylthio)benzthiazol-6-sulfonyl)amino]-3-(4-(3-phthalimido-1-propyl)oxyphenyl)propionic Acid [Table 5 Number 33]”, the IC50 on gelatinase B (MMP-9) was 5 nM; against gelatinase A (MMP-2), 1.4 nM.

Take “(2R)-N-hydroxy-2-[(2-n-pentylthiobenzthiazol-6-sulfonyl)amino]Propionamide [Table 1 Number 2]”: the IC50 is 7400 nM against gelatinase B (MMP-9) and 210 nM against gelatinase A (MMP-2).

As for `CC(C)[C@@H](NS(=O)(=O)c1ccc2nc(SC3CCCC3)sc2c1)C(=O)O` [Number 67], the IC50 was determined as 8250 nM against gelatinase B (MMP-9) and 690 nM against gelatinase A (MMP-2).

For `CC(C)[C@@H](NS(=O)(=O)c1ccc2nc(Sc3ccccc3)sc2c1)C(=O)O` [Number 77], the IC50 worked out at 1880 nM against gelatinase B (MMP-9) and 410 nM against gelatinase A (MMP-2).

Consider `Cc1ccc(Sc2nc3ccc(S(=O)(=O)N[C@@H](C(=O)O)C(C)C)cc3s2)cc1` [Number 79], for which the IC50 against gelatinase B (MMP-9) turned out to be 1710 nM; against gelatinase A (MMP-2) it was 250 nM.

As for `CCCCCCCCSc1nc2ccc(S(=O)(=O)N[C@@H](C(=O)NO)C(C)C)cc2s1` [Number 56], the figures for the IC50 at gelatinase B (MMP-9) and on gelatinase A (MMP-2) were 3 nM and 0.5 nM, respectively.
